Results taken from ChEMBL document CHEMBL1201862, “PubChem BioAssay data set” (2004).
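Interpolation was linear, between the two tested concentrations surrounding the appropriate level; five concentrations were tested over 48 hours in 96-well plates. GI50 is the concentration that inhibits growth by half.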 The source made the active and inactive calls. Rule as the data show it: active = GI50 up to about 1.1 µM and inactive = higher.

Columns and labels:
Assay in all cases: NCI tumour cell line growth inhibition, 48 h
HCT-116 = system: HCT-116
HCT-15 = system: HCT-15
NCI-H460 = system: NCI-H460
UACC-257 = system: UACC-257
HT-29 = system: HT-29
ACHN = system: ACHN
MCF7 = system: MCF7
OVCAR-5 = system: OVCAR-5
SK-OV-3 = system: SK-OV-3
OVCAR-4 = system: OVCAR-4
RPMI-8226 = system: RPMI-8226
SK-MEL-2 = system: SK-MEL-2
CCRF-CEM = system: CCRF-CEM
CAKI-1 = system: CAKI-1
IGROV-1 = system: IGROV-1
U-251 = system: U-251
T47D = system: T47D
UO-31 = system: UO-31
MDA-N = system: MDA-N
SF-295 = system: SF-295
Malme-3M = system: Malme-3M
HOP-92 = system: HOP-92
M14 = system: M14
HCC 2998 = system: HCC 2998
SK-MEL-5 = system: SK-MEL-5
MDA-MB-231 = system: MDA-MB-231
HL-60 = system: HL-60
KM12 = system: KM12
MOLT-4 = system: MOLT-4
SNB-19 = system: SNB-19
SF-539 = system: SF-539
SW-620 = system: SW-620
RXF 393 = system: RXF 393
SR = system: SR
COLO 205 = system: COLO 205
SNB-75 = system: SNB-75
TK-10 = system: TK-10
OVCAR-8 = system: OVCAR-8
EKVX = system: EKVX
SK-MEL-28 = system: SK-MEL-28
PC-3 = system: PC-3
HOP-62 = system: HOP-62
NCI-H522 = system: NCI-H522
Hs-578T = system: Hs-578T
A549 = system: A549
NCI-H23 = system: NCI-H23
DU-145 = system: DU-145
OVCAR-3 = system: OVCAR-3
A498 = system: A498
SF-268 = system: SF-268
LOX IMVI = system: LOX IMVI
SN12C = system: SN12C
MDA-MB-435 = system: MDA-MB-435
BT-549 = system: BT-549
NCI-H226 = system: NCI-H226
K562 = system: K562
UACC-62 = system: UACC-62
NCI/ADR-RES = system: NCI/ADR-RES
786-0 = system: 786-0

Measured: GI50

Cc1cc(C)c2c(=O)n(CC(O)CN3CCN(c4ncccn4)CC3)sc2n1 (stereo not given)
18.8 µM: HCT-15
inactive: HCT-116 15.6 µM | NCI-H460 17.5 µM | UACC-257 16.7 µM | HT-29 16.1 µM | ACHN 18.4 µM | MCF7 17.9 µM | OVCAR-5 16.5 µM | SK-OV-3 18.7 µM | OVCAR-4 18.6 µM | RPMI-8226 4.71 µM | SK-MEL-2 18.7 µM | CCRF-CEM 5.79 µM | CAKI-1 20 µM | IGROV-1 29.4 µM | U-251 17.8 µM | T47D 23.4 µM | UO-31 16.4 µM | MDA-N 16 µM | SF-295 > 100 µM | Malme-3M 20.1 µM | HOP-92 29 µM | M14 15.7 µM | HCC 2998 18.9 µM | SK-MEL-5 20.5 µM | MDA-MB-231 17.5 µM | HL-60 16.6 µM | KM12 20.8 µM | MOLT-4 4 µM | SNB-19 64.3 µM | SF-539 17.8 µM | SW-620 19.5 µM | RXF 393 17.5 µM | SR 4.79 µM | COLO 205 19 µM | SNB-75 15.1 µM | TK-10 18.2 µM | OVCAR-8 19.2 µM | EKVX 16 µM | SK-MEL-28 17 µM | PC-3 18.7 µM | HOP-62 20.3 µM | NCI-H522 13 µM | Hs-578T 21.4 µM | A549 17.5 µM | NCI-H23 17.7 µM | DU-145 16.6 µM | OVCAR-3 19.4 µM | A498 17.4 µM | SF-268 18.6 µM | LOX IMVI 17.1 µM | SN12C 17.8 µM | MDA-MB-435 16.6 µM | BT-549 18.4 µM | NCI-H226 96.8 µM | K562 22.3 µM | UACC-62 17.8 µM | NCI/ADR-RES 31 µM | 786-0 14.5 µM

COC1/C=C/C(C)C(C(C)C(OC)C(C)CCC(=O)C(C)C(CCC(=O)O)OC)OC(=O)/C=C/C=C(\C)CC(OC)CC2=CC(=O)O[C@@H](C(C)C(OC)CC(OC)/C=C/C(C)C(OC)C1)[C@H]2O (stereo not given in full)
0.74 µM: HCT-15
inactive: UACC-257 1.24 µM | OVCAR-5 > 5 µM | SK-OV-3 1.18 µM | T47D 2.56 µM | KM12 2.19 µM | TK-10 1.65 µM | OVCAR-8 2.21 µM | EKVX 2.22 µM | NCI-H522 1.37 µM | NCI-H23 1.61 µM | DU-145 1.71 µM | K562 1.92 µM | NCI/ADR-RES > 5 µM
active: HCT-116 0.385 µM | NCI-H460 0.43 µM | HT-29 0.284 µM | ACHN 0.74 µM | MCF7 1.04 µM | OVCAR-4 0.971 µM | RPMI-8226 0.242 µM | SK-MEL-2 0.271 µM | CCRF-CEM 0.181 µM | CAKI-1 0.269 µM | IGROV-1 0.177 µM | U-251 0.249 µM | MDA-N 0.6 µM | SF-295 0.859 µM | Malme-3M 0.592 µM | HOP-92 0.372 µM | M14 0.63 µM | HCC 2998 0.353 µM | SK-MEL-5 0.296 µM | MDA-MB-231 0.483 µM | HL-60 0.185 µM | MOLT-4 0.467 µM | SNB-19 0.679 µM | SF-539 0.292 µM | SW-620 0.607 µM | RXF 393 0.583 µM | SR 0.637 µM | COLO 205 0.125 µM | SNB-75 0.16 µM | SK-MEL-28 0.792 µM | PC-3 0.454 µM | HOP-62 0.631 µM | Hs-578T 0.499 µM | A549 0.332 µM | OVCAR-3 0.646 µM | A498 0.123 µM | SF-268 0.284 µM | LOX IMVI 0.226 µM | SN12C 0.733 µM | MDA-MB-435 0.748 µM | BT-549 0.661 µM | NCI-H226 0.695 µM | UACC-62 0.787 µM | 786-0 0.578 µM

CC1=C(C(=O)N[C@@H](CC(C)C)C(=O)O)N2C(=O)[C@@H](NC(=O)[C@@H](N)Cc3ccccc3)[C@H]2SC1
inactive: NCI-H460 > 100 µM | UACC-257 > 100 µM | ACHN > 100 µM | MCF7 > 100 µM | OVCAR-5 > 100 µM | OVCAR-4 > 100 µM | RPMI-8226 > 100 µM | SK-MEL-2 > 100 µM | CCRF-CEM > 100 µM | CAKI-1 > 100 µM | IGROV-1 > 100 µM | U-251 > 100 µM | T47D > 100 µM | MDA-N > 100 µM | SF-295 > 100 µM | Malme-3M > 100 µM | HOP-92 > 100 µM | M14 > 100 µM | HCC 2998 > 100 µM | SK-MEL-5 > 100 µM | MDA-MB-231 > 100 µM | HL-60 > 100 µM | KM12 > 100 µM | MOLT-4 > 100 µM | SNB-19 > 100 µM | SF-539 > 100 µM | SW-620 > 100 µM | RXF 393 > 100 µM | SR > 100 µM | COLO 205 > 100 µM | SNB-75 > 100 µM | TK-10 > 100 µM | OVCAR-8 > 100 µM | EKVX > 100 µM | SK-MEL-28 > 100 µM | PC-3 > 100 µM | NCI-H522 > 100 µM | Hs-578T > 100 µM | A549 > 100 µM | DU-145 > 100 µM | OVCAR-3 > 100 µM | A498 > 100 µM | SF-268 > 100 µM | LOX IMVI > 100 µM | SN12C > 100 µM | MDA-MB-435 > 100 µM | BT-549 > 100 µM | NCI-H226 > 100 µM | K562 > 100 µM | UACC-62 > 100 µM | NCI/ADR-RES > 100 µM | 786-0 > 100 µM
> 100 µM: HCT-15
